In brackets after ≈: the same amount, converted by molar mass. Like-named read-outs stand apart in the source and are kept apart here.

The term MIC denotes the least concentration at which growth counts as inhibited.

Series [1] relates to Klebsiella aerogenes E70. Kind of series: in vitro MIC of ampicillin with and without the compound (synergy). The series is classed as cell-based. Particulars: without the compound of Example 2, read-out: in vitro MIC of ampicillin alone.
The subject of series [2] is E. coli E96 (Rtem). The experiment in a line: in-vivo test in mice infected intraperitoneally with E. coli E96 (Rtem), amoxycillin synergy. The following applies: Escherichia coli, sc, read-out: CD50 of amoxycillin alone.
The test system of series [3] is Staphylococcus aureus Smith. Kind of series: in-vivo anti-bacterial activity in mice with intraperitoneal Staphylococcus aureus Smith infection. The following applies: intraperitoneal S. aureus Smith; for ED50: Staphylococcus aureus, sc, sub-cutaneous dosing 1 and 5 hours post infection. As to the method: (§1) When tested in mice suffering from an intraperitoneal infection of Staphylococcus aureus Smith, the following results where obtained with sub-cutaneous dosing 1 and 5 hours post infection: […]

Series [4] deals with Staph. aureus Russell. The experiment in a line: MIC in DST agar containing 5% blood. The series is classed as cell-based. Particulars: Staphylococcus aureus. From the text: (§2) The following MIC values (μg/ml) for the compound of Example 2 were obtained in DST agar containing 5% blood: […]
For series [5], the system named is Strep. pyogenes CN1O. The experiment in a line: MIC in DST agar containing 5% blood. The class given is cell-based. The following applies: Streptococcus pyogenes.
Source text: as §2

The subject of series [6] is Staph. aureus 1517. Kind of series: MIC in DST agar containing 5% blood. The class given is cell-based. The following applies: Staphylococcus aureus.
Source text: as §2

Series [7] deals with Prot. mirabilis C977. Kind of series: MIC in DST agar containing 5% blood. The class given is cell-based. The following applies: Proteus mirabilis.
Source text: as §2

For series [8], the system named is E. coli JT39 (R+). The experiment in a line: MIC in DST agar containing 5% blood. The series is classed as cell-based. The following applies: Escherichia coli.
Source text: as §2

Series [9] deals with Strep. pneumoniae. Kind of series: MIC in DST agar containing 5% blood. The series is classed as cell-based. Particulars: Streptococcus pneumoniae.
Source text: as §2

Series [10] has as its system Kleb. aerogenes A. Kind of series: MIC in DST agar containing 5% blood. The series is classed as cell-based. The following applies: Klebsiella aerogenes.
Source text: as §2

Series [11] concerns Staph. aureus Oxford. The experiment in a line: MIC in DST agar containing 5% blood. The series is classed as cell-based. Particulars: Staphylococcus aureus.
Source text: as §2

For series [12], the system named is Strep. faecalis I. The experiment in a line: MIC in DST agar containing 5% blood. The series is classed as cell-based. Particulars: Enterococcus faecalis.
Source text: as §2

For series [13], the system named is E. coli 0111. Kind of series: MIC in DST agar containing 5% blood. The class given is cell-based. Particulars: Escherichia coli.
Source text: as §2

The subject of series [14] is E. coli ESS. Kind of series: MIC in DST agar containing 5% blood. The series is classed as cell-based. The following applies: Escherichia coli.
Source text: as §2

A short description of series [15]: overt drug induced toxicity in infected mice at the therapeutic dose. The following applies: sub-cutaneous. The series is classed as in vivo. The protocol:
as §1

The mark [16] stands for this setting: read-out: CD50 (the source's name).

Take `CC1(C)S[C@@H]2[C@H](NC(=O)[C@H](N)c3ccccc3)C(=O)N2[C@H]1C(=O)O` [ampicillin]: in [1], the MIC was found to be 125 mg/L.

For the molecule `CC1(C)S[C@@H]2[C@H](NC(=O)[C@H](N)c3ccc(O)cc3)C(=O)N2[C@H]1C(=O)O` [amoxycillin], in [2], the ED50 is above 1000 mg/kg.

Regarding `O=C(O)[C@H]1/C(=C/CO)O[C@@H]2CC(=O)N21` [Clavulanic acid sodium, reference compound], the ED50 is 12 to 27 mg/kg in series [3] (range of results in various tests, read-out: CD50, range of results in various tests) and 13 mg/kg in series [3] (setting [16]).

`O=C(O)[C@H]1/C(=C/CN2CCc3ccccc3C2)O[C@@H]2CC(=O)N21` [Example 2, 9-N-(1,2,3,4-Tetrahydroisoquinolyl)deoxyclavulanic acid]: the MIC in [4] is at most 1.25 mg/L; in series [5], at most 1.25 mg/L; in [6], 20 mg/L (≈ 63.6 µM); in series [7] it was above 80 mg/L; in series [8] it was 40 mg/L (≈ 127 µM); in series [9], at most 1.25 mg/L. The MIC in [10] was 20 mg/L (≈ 63.6 µM); in series [11], at most 1.25 mg/L; in series [12], 80 mg/L (≈ 255 µM); in series [13], 80 mg/L (≈ 255 µM); in series [14] it was 10 mg/L (≈ 31.8 µM). Moreover, the ED50 in series [3] (setting [16]) is 3.5 mg/kg. In addition, in series [3] (result in words), the anti-bacterial activity in-vivo result is “good anti-bacterial activity in-vivo”. For the same molecule, the “overt drug induced toxicity” value in series [15] is given as “No overt drug induced toxicity was observed”.

The values above are taken from patent publication US4444754A, “Derivatives of clavulanic acid, a process for their preparation and their use” (Beecham Group Limited, priority 1978, dated 1984).
